The values that follow are results of earlier work, collected in patent publication EP1790727A2, “Proteins and nucleic acids encoding same” (Curagen Corporation, priority 2000, dated 2002).

One data set relates to neutrophil. The following applies: in vitro.
The conditions of data set [1]: in vivo, mouse paw.
For data set [2] the following is noted: for increased reepithelialization over saline controls: topically or intraperitoneally.
A further data set concerns the target MgATP-actin (Homo sapiens, UniProt P68133). The following applies: but not CaATP-actin.
A further data set concerns keratinocyte. The following applies: after 4-5 h; as little as 10 pg of Tbeta4.

Like-named read-outs stand apart in the source and are kept apart here.

Consider thymosin beta4 sulfoxide, for which, in the data set with neutrophil, the neutrophil chemotaxis result was “inhibited”. In addition, in data set [1], the carrageenin-induced edema result is on record as “potent inhibitor”.

With thymosin beta4 [Tbeta4], in data set [2] (by day 7), the “wound contraction more than controls” value was “at least 11%”. In addition, the “collagen deposition and angiogenesis in the treated wounds” value in data set [2] (rat, in vivo) is on record as “Increased”. Moreover, the results for the “increased reepithelialization over saline controls” value in data set [2] (at 4 d) and in data set [2] (at 7 d post-wounding) were 42% and at most 61%, respectively. Also, the “proteolysis at Gly(46) on subdomain 2, faster when Tbeta(4) is bound” value with MgATP-actin is on record as above 12 times. Besides, the carrageenin-induced edema result in data set [1] is “not”. For the same substance, the “migration stimulated over migration with medium alone” value in the data set on keratinocyte is 2-3 fold.
